Patent publication US20240300943A1, “NOVEL SALTS OF HETEROCYCLIC COMPOUND AS PROTEIN KINASE INHIBITOR AND USES THEREOF” (HK INNO.N CORPORATION, priority 2021, published 2024)

Tests used:
Assay type in all cases: physicochemical
[1] = Measurement of water solubility; settings: saturated solution shaken at room temperature for 24 hours
Protocol: A liquid phase was taken out of the solution and filtered using a 0.22 μm PVDF filter. The filtered liquid phase was diluted 10-fold for LC analysis.
LC analysis was performed by the following method.

[2] = Physical stability evaluation under stress conditions
Protocol: In order to evaluate physical stability, samples were packaged in the form of ((LPDE+N2)+silica gel 1 g+LDPE)+Al-Bag, and stored under stress conditions (60° C.±2° C./80% RH±5%) for 2/4 weeks before evaluation.
In table 2, initial is a result measured after preparation of salts, and S2W and S4W are results measured after two and four weeks while being exposed to stress conditions, respectively.

[3] = Photostability evaluation
Text: Samples were packaged in LPDE bag, and stored under visible (1.2M Lux-h), UV (200 W-h/m2) and UV+visible conditions, respectively, and then evaluated.

[4] = Hygroscopicity evaluation; settings: for Individual related material: in %
Text: Samples were placed in a glass desiccator in which relative humidity was adjusted to 33%, 53%, 75%, and 93%, and then stored for two and four weeks to be evaluated.

C[C@@H]1CN(C(=O)CC#N)CC=C1c1cc(NC(=O)C2CC2)nc2[nH]ccc12 [Example 4, (S)—N-(4-(1-(2-cyanoacetyl)-3-methyl-1,2,3,6-tetrahydropyridin-4-yl)-1H-pyrrolo[2,3-b]pyridin-6-yl)cyclopropanecarboxamide]
Water solubility [1]: 1900 µg/mL
C.I quantitative ([2]; Initial): 40.3%
Content (anhydride, as anhydride) ([2]; Initial): 100.4%
Moisture ([2]; Initial): 0.67%
Purity: Individual related material ([2]; Initial): 0.13%
Purity: Total related material ([2]; Initial): 1.13%
C.I quantitative ([2]; S2W: 2 weeks at 60° C./80% RH): 40.3%
Content (anhydride, as anhydride) ([2]; S2W: 2 weeks at 60° C./80% RH): 101.9%
Purity: Individual related material ([2]; S2W: 2 weeks at 60° C./80% RH): 0.23%
Purity: Total related material ([2]; S2W: 2 weeks at 60° C./80% RH): 1.32%
C.I quantitative ([2]; S4W: 4 weeks at 60° C./80% RH): 40.6%
Content (anhydride, as anhydride) ([2]; S4W: 4 weeks at 60° C./80% RH): 101.9%
Moisture ([2]; S4W: 4 weeks at 60° C./80% RH): 0.98%
Purity: Individual related material ([2]; S4W: 4 weeks at 60° C./80% RH): 0.30%
Purity: Total related material ([2]; S4W: 4 weeks at 60° C./80% RH): 1.31%
Individual related material ([3]; Initial): 0.13%
Total related material ([3]; Initial): 1.13%
Individual related material ([3]; Solid, Control): 0.14%
Total related material ([3]; Solid, Control): 0.14%
Individual related material ([3]; Solid, UV (200 W-h/m2)): 0.13%
Total related material ([3]; Solid, UV (200 W-h/m2)): 0.27%
Individual related material ([3]; Solid, UV + Vis): 0.13%
Total related material ([3]; Solid, UV + Vis): 0.72%
Individual related material ([3]; Solid, UV + Vis Control): 0.14%
Total related material ([3]; Solid, UV + Vis Control): 0.14%
Individual related material ([3]; Solid, Vis (1.2M Lux-h)): 0.13%
Total related material ([3]; Solid, Vis (1.2M Lux-h)): 0.68%
Total related material ([4]; Initial): 1.13%
Water ([4]; Initial): 0.67%
Individual related material ([4]; Initial): 0.13
Total related material ([4]; relative humidity 33%, 2 W): 1.1%
Water ([4]; relative humidity 33%, 2 W): 0.56%
Individual related material ([4]; relative humidity 33%, 2 W): 0.14
Total related material ([4]; relative humidity 33%, 4 W): 1.07%
Water ([4]; relative humidity 33%, 4 W): 0.54%
Individual related material ([4]; relative humidity 33%, 4 W): 0.14
Total related material ([4]; relative humidity 53%, 2 W): 1.18%
Water ([4]; relative humidity 53%, 2 W): 0.80%
Individual related material ([4]; relative humidity 53%, 2 W): 0.15
Total related material ([4]; relative humidity 53%, 4 W): 1.04%
Water ([4]; relative humidity 53%, 4 W): 0.65%
Individual related material ([4]; relative humidity 53%, 4 W): 0.15
Total related material ([4]; relative humidity 75%, 2 W): 1.18%
Water ([4]; relative humidity 75%, 2 W): 1.44%
Individual related material ([4]; relative humidity 75%, 2 W): 0.15
Total related material ([4]; relative humidity 75%, 4 W): 1.18%
Water ([4]; relative humidity 75%, 4 W): 1.02%
Individual related material ([4]; relative humidity 75%, 4 W): 0.16
Total related material ([4]; relative humidity 93%, 2 W): 1.17%
Water ([4]; relative humidity 93%, 2 W): 2.03%
Individual related material ([4]; relative humidity 93%, 2 W): 0.16
Total related material ([4]; relative humidity 93%, 4 W): 1.15%
Water ([4]; relative humidity 93%, 4 W): 1.72%
Individual related material ([4]; relative humidity 93%, 4 W): 0.17

C[C@@H]1CN(C(=O)CC#N)CC=C1c1cc(NC(=O)C2CC2)nc2[nH]ccc12 [Example 1, (S)—N-(4-(1-(2-cyanoacetyl)-3-methyl-1,2,3,6-tetrahydropyridin-4-yl)-1H-pyrrolo[2,3-b]pyridin-6-yl)cyclopropanecarboxamide]
Water solubility [1]: 5900 µg/mL
C.I quantitative ([2]; Initial): 9.2%
Content (anhydride, as anhydride) ([2]; Initial): 97.9%
Moisture ([2]; Initial): 3.33%
Purity: Individual related material ([2]; Initial): 0.13%
Purity: Total related material ([2]; Initial): 0.66%
C.I quantitative ([2]; S2W: 2 weeks at 60° C./80% RH): 9.1%
Content (anhydride, as anhydride) ([2]; S2W: 2 weeks at 60° C./80% RH): 98.0%
Purity: Individual related material ([2]; S2W: 2 weeks at 60° C./80% RH): 0.13%
Purity: Total related material ([2]; S2W: 2 weeks at 60° C./80% RH): 1.08%
C.I quantitative ([2]; S4W: 4 weeks at 60° C./80% RH): 9.1%
Content (anhydride, as anhydride) ([2]; S4W: 4 weeks at 60° C./80% RH): 98.6%
Purity: Individual related material ([2]; S4W: 4 weeks at 60° C./80% RH): 0.34%
Purity: Total related material ([2]; S4W: 4 weeks at 60° C./80% RH): 1.28%
Individual related material ([3]; Initial): 0.13%
Total related material ([3]; Initial): 0.66%
Individual related material ([3]; Solid, Control): 0.11%
Total related material ([3]; Solid, Control): 0.55%
Individual related material ([3]; Solid, UV (200 W-h/m2)): 0.36%
Total related material ([3]; Solid, UV (200 W-h/m2)): 2.31%
Individual related material ([3]; Solid, UV + Vis): 0.81%
Total related material ([3]; Solid, UV + Vis): 4.74%
Individual related material ([3]; Solid, UV + Vis Control): 0.12%
Total related material ([3]; Solid, UV + Vis Control): 0.65%
Individual related material ([3]; Solid, Vis (1.2M Lux-h)): 0.66%
Total related material ([3]; Solid, Vis (1.2M Lux-h)): 3.83%
Total related material ([4]; Initial): 0.66%
Water ([4]; Initial): 3.33%
Individual related material ([4]; Initial): 0.13
Total related material ([4]; relative humidity 33%, 2 W): 0.68%
Water ([4]; relative humidity 33%, 2 W): 5.22%
Individual related material ([4]; relative humidity 33%, 2 W): 0.12
Total related material ([4]; relative humidity 33%, 4 W): 0.62%
Water ([4]; relative humidity 33%, 4 W): 5.32%
Individual related material ([4]; relative humidity 33%, 4 W): 0.11
Total related material ([4]; relative humidity 53%, 2 W): 0.78%
Water ([4]; relative humidity 53%, 2 W): 5.21%
Individual related material ([4]; relative humidity 53%, 2 W): 0.12
Total related material ([4]; relative humidity 53%, 4 W): 0.78%
Water ([4]; relative humidity 53%, 4 W): 5.38%
Individual related material ([4]; relative humidity 53%, 4 W): 0.12
Total related material ([4]; relative humidity 75%, 2 W): 0.69%
Water ([4]; relative humidity 75%, 2 W): 5.24%
Individual related material ([4]; relative humidity 75%, 2 W): 0.12
Total related material ([4]; relative humidity 75%, 4 W): 0.68%
Water ([4]; relative humidity 75%, 4 W): 5.41%
Individual related material ([4]; relative humidity 75%, 4 W): 0.11
Total related material ([4]; relative humidity 93%, 2 W): 0.89%
Water ([4]; relative humidity 93%, 2 W): 5.37%
Individual related material ([4]; relative humidity 93%, 2 W): 0.12
Total related material ([4]; relative humidity 93%, 4 W): 0.94%
Water ([4]; relative humidity 93%, 4 W): 5.43%
Individual related material ([4]; relative humidity 93%, 4 W): 0.13
